According to paper PMC10974732 (2024):
In brackets after ≈: the same amount, converted by molar mass.

System: 2B.N2A9 (DNA, aptamer) CATCTGCAGTGTGGCACCATGGGCATTGGGGGGCGAGGGTGGTTGGAGCGTTTGTGTGCGACGTGCTGAGCGTGAATTCGC
Assay: indirect competitive ELOSA (SA-HRP/TMB)
Conditions: 37 °C, 1 h; 50 nM aptamer; competes with immobilised Neu5Gc-BSA (1 μg/mL coating)

CC(=O)N[C@@H]1C(O)O[C@H](CO)[C@@H](O)[C@@H]1O (stereo partly shown)
IC50: 36,307.8 ng/mL

CC(=O)N[C@H]1[C@H]([C@H](O)[C@H](O)CO)OC(O)(C(=O)O)C[C@@H]1O (stereo partly shown)
IC50: 467.74 ng/mL (≈ 1.51 µM)

O=C(CO)N[C@H]1[C@H]([C@H](O)[C@H](O)CO)OC(O)(C(=O)O)C[C@@H]1O (stereo partly shown)
IC50: 9.35 ng/mL (≈ 0.0287 µM)

O=C(O)C1(O)C[C@H](O)[C@@H](O)[C@H]([C@H](O)[C@H](O)CO)O1 (stereo partly shown)
IC50: 1659.58 ng/mL (≈ 6.19 µM)

OC[C@H]1OC(O)[C@H](O)[C@@H](O)[C@@H]1O (stereo partly shown)
IC50: > 93,500.00 ng/mL

OC[C@H]1O[C@@](CO)(O[C@H]2O[C@H](CO)[C@@H](O)[C@H](O)[C@H]2O)[C@@H](O)[C@@H]1O
IC50: > 93,500.00 ng/mL

OC[C@H]1O[C@H](O[C@H]2[C@H](O)[C@@H](O)C(O)O[C@@H]2CO)[C@H](O)[C@@H](O)[C@@H]1O (stereo partly shown)
IC50: > 93,500.00 ng/mL
